Experimental data reported in patent publication US20260158194A1, “DRUG COATED BALLOON” (ARTERIUS LIMITED, priority 2021, published 2026).

Tests used:
[1] = Drug release profile of spray-coated balloons, PBS then methanol elution, UV (Example 4); assay type: physicochemical
Procedure: The technique of spray coating was introduced using a 5% solution of high molecular weight polymer PEG-PPO-PEG (Mn=14,600) in methanol. This spray coating method was used to add multiple layers of coating and ensured the correct area of the balloon was coated in a more precise fashion.
In this example, a set of experiments was conducted to assess the drug release profiles of Sirolimus and Dipyridamole. The samples were spray coated with their coating solutions with nitrogen gas at 1 bar, and 20 rotations were done (10 clockwise and 10 anticlockwise). The separation from the balloon and spray nozzle was approximately 15 cm.
The drug release profiles of both Dipyridamole and Sirolimus were determined using an excipient polymer PEG-PPO-PEG (Mn=14,600) with organic carrier solvent methanol. The coating solution quantities can be found in Table 3.
The resulting coated balloons were eluted in 8 mL of PBS for 3 minutes, before being eluted into 8 mL of methanol for 5 minutes, for full release of the coating.

[2] = Simulated tracking and deployment (ASTM F3320-18) into hydrogel mock-vessel (Examples 14-17); assay type: physicochemical; conditions: single drug
Procedure: In this example, a hydrogel was used to mimic the arterial tissue wall to assess the drug release profile and simulate the tracking and deployment process.
Based on the process described in ASTM F3320-18, folded balloons were pushed through a 37° C. heated anatomical model filled with PBS for 30 seconds. At the end of the track, balloons were then inflated to nominal pressure inside the hydrogel for 1 minute. The PBS inside the track was collected and replaced, and the balloon withdrawn back through the track. The PBS in the track was collected, and the coated balloon was inflated to nominal pressure for a final drug release in methanol for 5 minutes. The drug concentration in the two PBS samples and methanol sample was measured by UV-VIS. This was used to calculate the drug dose delivered to the hydrogel site.
In this example, the drug release profiles of balloons dip coated with methanol solutions containing 20% excipient Pluronic F108 and 8% of either dipyridamole or sirolimus were assessed. After coating, the balloons were dried and folded.
In this example, balloons were spray coated with a methanol solution containing 1% excipient Pluronic F108, and 2% of either dipyridamole or sirolimus. After drying and folding the balloons were sterilised.

Post-PBS reading @415 nm ([1]; 8 mL PBS 3 minutes, spray coated, PEG-PPO-PEG Mn 14,600): 0.042
Post-Methanol reading @415 nm ([1]; 8 mL methanol 5 minutes after PBS elution): 0.087
drug released during elution time ([1]; printed '5-minute elution time', from UV reading and calibration coefficient, PEG-PPO-PEG polymer): 32.6%
loaded drug released during deployment to the hydrogel target site ([2]; spray coated, 1% Pluronic F108 and 2% drug, sterilised): 71.1%
Compound: OCCN(CCO)c1nc(N2CCCCC2)c2nc(N(CCO)CCO)nc(N3CCCCC3)c2n1 [dipyridamole]
drug lost when tracking to the site ([2]; dip coated, 20% Pluronic F108 and 8% drug): considerably less dipyridamole than sirolimus was lost
